Results on 17 molecules are retold here after patent publication US20100075907A1, “NEUROMEDIN U RECEPTOR AGONISTS AND USES THEREOF” (priority 2006, published 2010).

Non-standard residues stand in square brackets, D forms with d. Residues, ends and D or L forms follow the SMILES beside them. No end group written: not given here. hArg = N=C(N)NCCCC[C@H](N)C(=O)O; dNle = CCCC[C@@H](N)C(=O)O

Sequence of hNMUR2 (Q9GZQ4 whole entry): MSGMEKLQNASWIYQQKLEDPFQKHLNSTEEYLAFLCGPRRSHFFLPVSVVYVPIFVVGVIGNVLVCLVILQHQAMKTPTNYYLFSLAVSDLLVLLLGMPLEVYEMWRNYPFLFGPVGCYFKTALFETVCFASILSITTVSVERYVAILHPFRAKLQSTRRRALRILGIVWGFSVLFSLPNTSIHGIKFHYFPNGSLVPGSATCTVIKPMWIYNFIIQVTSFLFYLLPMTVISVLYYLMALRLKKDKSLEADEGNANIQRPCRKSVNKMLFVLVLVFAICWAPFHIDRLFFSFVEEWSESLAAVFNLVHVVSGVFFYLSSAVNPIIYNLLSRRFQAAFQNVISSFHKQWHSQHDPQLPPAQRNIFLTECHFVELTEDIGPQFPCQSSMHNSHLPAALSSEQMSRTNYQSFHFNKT

The first experiment deals with hNMUR2 (Homo sapiens, UniProt Q9GZQ4). The experiment can be described thus: 125I-hNMU-25 binding assay, human NMUR2 membranes. Also on record: expressed in transfected cells; host or cells: HEK-293 FLP-In cells (pcDNA5); HEK-293/aeq17 lines (pcDNA3.1) were also made; % inhibition of NMU-25 binding / % Activity: concentration or dose not given beside the values. Particulars: Table 8, HEK-hR2, binding. The method, then:
Confluent cell monolayers expressing NMU receptors (the HEK cells described above) were harvested with phosphate buffered saline, collected by centrifugation, and resuspended in membrane buffer (50 mM TrisCl pH 7.4, 5 mM MgCl2, 1× Protease Inhibitor Cocktail, 10 μM phosphoramidon). After the cell pellet was homogenized, the solution was centrifuged at 18,000 rpm for 20 minutes at 4° C. The pellet was resuspended in membrane buffer to yield a final concentration of 0.5-5 μg/μL of membrane and stored at −80° C.
Experiments were performed in assay buffer (25 mM TrisCl, pH 7.4, 10 mM MgCl2, 2 mM EDTA, 1× Protease Inhibitor Cocktail, 100 μg/mL Bacitricin, 10 μM phosphoramidon) in 200 μL volumes in a 96-well format using 2-5 μg of membrane and 0.1 nM ^125I-hNMU-25 (about 12,000 cpm/well). For non-specific binding, 1 μM hNMU-25 was added. About 5 μL of peptides were added to measure antagonist activity, and the entire reaction was incubated at room temperature with shaking for 80 minutes. The reaction was terminated by rapid filtration through 0.3% poly-ethylenimine presoaked Millipore 96-well filter plates and washed with ice-cold buffer (5 mM TrisCl pH 7.4, 10 mM MgCl2, 2.5 mM EDTA, 0.04% Triton X-100). Plates were air-dried overnight at room temperature and recovered radioactivity was determined by standard scintillation counting. IC50 values were determined using GraphPad Prism software.
Concentration-response curves and radioligand-binding data were fitted using Prism (GraphPad Software). Results are summarized below in Tables 8 and 9.
For orientation: IC50 means the concentration that gives 50% inhibition. For `CC(C)C[C@@H](NC(=O)[C@H](Cc1ccccc1)NC(=O)[C@@H](N)Cc1ccc(O)cc1)C(=O)N[C@@H](Cc1c[nH]c2ccccc12)C(=O)N[C@@H](CCCNC(=N)N)C(=O)N1CCC[C@H]1C(=O)N[C@@H](CCCNC(=N)N)C(=O)N[C@@H](CC(N)=O)C(N)=O` [Agonist B, YF-(D-L)-WRPRN-CONH2] (H-YF[dL]WRPRN-NH2), the “% Activity” value came to 35% and the IC50 was over 1000 nM.
In the case of `C[C@@H](NC(=O)[C@H](Cc1ccccc1)NC(=O)[C@@H](N)Cc1ccc(O)cc1)C(=O)N[C@@H](Cc1c[nH]c2ccccc12)C(=O)N[C@@H](CCCNC(=N)N)C(=O)N1CCC[C@H]1C(=O)N[C@@H](CCCNC(=N)N)C(=O)N[C@@H](CC(N)=O)C(N)=O` [Agonist D, YF-(D-A)-WRPRN-CONH2] (H-YF[dA]WRPRN-NH2; N-terminus assumed), the “% Activity” value amounted to 0% and the IC50 is over 1000 nM.
As to `CC(=O)N[C@@H](Cc1ccccc1)C(=O)N[C@H](CC(C)C)C(=O)N[C@@H](Cc1c[nH]c2ccccc12)C(=O)N[C@@H](CCCNC(=N)N)C(=O)N1CCC[C@H]1C(=O)N[C@@H](CCCNC(=N)N)C(=O)N[C@@H](CC(N)=O)C(N)=O` [Agonist E, Ac-F-(D-L)-WRPRN-CONH2] (Ac-F[dL]WRPRN-NH2), the “% Activity” value turned out to be 5% and the IC50 is over 1000 nM.
As to “Ac-FFRPRN-NH2 [Agonist F, Ac-FFRPRN-CONH2]”, the “% Activity” value was determined as 12% and the IC50 is over 1000 nM.
As for “H-FRVDEEFQSPFASQSRGYFWRPRN-NH2 [Agonist G]”, the “% Activity” value came out at 33%.
As to H-YFGWRPRN-NH2 [Agonist C], the “% Activity” value amounted to 0% and the IC50 is over 1000 nM.
Take YFWRPRN-NH2 [Agonist A, YFWRPRN-CONH2]: the “% Activity” value was determined as 0% and the IC50 is over 1000 nM.

Still in this experiment, the particulars now being: Table 9, HEK-hR2, binding.
Consider `CC(C)C[C@H](NC(=O)[C@H](Cc1c[nH]c2ccccc12)NC(=O)[C@@H](N)Cc1ccccc1)C(=O)N[C@@H](Cc1ccccc1)C(=O)N[C@@H](CCCNC(=N)N)C(=O)N1CCC[C@H]1C(=O)N[C@@H](CCCCNC(=N)N)C(=O)N[C@@H](CC(N)=O)C(N)=O` [Agonist I, FWLFRP-(Harg)-N-CONH2] (H-FWLFRP[hArg]N-NH2), for which the “% Activity” value worked out at 90%.
As for `CC(C)C[C@H](NC(=O)[C@H](Cc1c[nH]c2ccccc12)NC(=O)[C@@H](N)Cc1ccccc1)C(=O)N[C@@H](Cc1ccccc1)C(=O)N[C@@H](CCCNC(=N)N)C(=O)N[C@@H](C)C(=O)N[C@@H](CCCCNC(=N)N)C(=O)N[C@@H](CC(N)=O)C(N)=O` [Agonist J, FWLFRA-(Harg)-N-CONH2] (H-FWLFRA[hArg]N-NH2), the “% Activity” value turned out to be 63% and the IC50 was found to be 150 nM.
With `CCCC[C@@H](NC(=O)[C@H](CCCNC(=N)N)NC(=O)[C@H](C)NC(=O)[C@H](CCCNC(=N)N)NC(=O)[C@H](Cc1ccccc1)NC(=O)[C@H](CC(C)C)NC(=O)[C@H](Cc1ccccc1)NC(=O)[C@@H](N)Cc1c[nH]c2ccccc12)C(N)=O` [Agonist K, WFLFRAR-(D-Nle)-CONH2] (H-WFLFRAR[dNle]-NH2), the “% Activity” value is 100%.
As for `CC(C)C[C@H](NC(=O)[C@H](Cc1c[nH]c2ccccc12)NC(=O)[C@H](Cc1ccccc1)NC(=O)CNC(=O)[C@H](CCCNC(=N)N)NC(=O)[C@H](CO)NC(=O)[C@H](CCC(N)=O)NC(=O)[C@H](CO)NC(=O)[C@H](C)NC(=O)[C@H](Cc1ccccc1)NC(=O)[C@@H]1CCCN1C(=O)[C@H](CO)NC(=O)[C@H](CCC(N)=O)NC(=O)[C@H](Cc1ccccc1)NC(=O)[C@H](CCC(=O)O)NC(=O)[C@H](CCC(=O)O)NC(=O)[C@H](CC(=O)O)NC(=O)[C@@H](NC(=O)[C@H](CCCNC(=N)N)NC(=O)[C@@H](N)Cc1ccccc1)C(C)C)C(=O)N[C@@H](Cc1ccccc1)C(=O)N[C@@H](CCCNC(=N)N)C(=O)N1CCC[C@H]1C(=O)N[C@@H](CCCCNC(=N)N)C(=O)N[C@@H](CC(N)=O)C(N)=O` [Agonist O] (H-FRVDEEFQSPFASQSRGFWLFRP[hArg]N-NH2; N-terminus assumed), the “% Activity” value is listed as 92% and the IC50 stood at 3 nM.
In the case of `CC(C)C[C@H](NC(=O)[C@H](Cc1c[nH]c2ccccc12)NC(=O)[C@H](Cc1ccccc1)NC(=O)CNC(=O)[C@H](CCCNC(=N)N)NC(=O)[C@H](CO)NC(=O)[C@H](CCC(N)=O)NC(=O)[C@H](CO)NC(=O)[C@H](C)NC(=O)[C@H](Cc1ccccc1)NC(=O)[C@@H]1CCCN1C(=O)[C@H](CO)NC(=O)[C@H](CCC(N)=O)NC(=O)[C@H](Cc1ccccc1)NC(=O)[C@H](CCC(=O)O)NC(=O)[C@H](CCC(=O)O)NC(=O)[C@H](CC(=O)O)NC(=O)[C@@H](NC(=O)[C@H](CCCNC(=N)N)NC(=O)[C@@H](N)Cc1ccccc1)C(C)C)C(=O)N[C@@H](Cc1ccccc1)C(=O)N[C@@H](CCCNC(=N)N)C(=O)N[C@@H](C)C(=O)N[C@@H](CCCCNC(=N)N)C(=O)N[C@@H](CC(N)=O)C(N)=O` [Agonist P] (H-FRVDEEFQSPFASQSRGFWLFRA[hArg]N-NH2; N-terminus assumed), the “% Activity” value stood at 81% and the IC50 turned out to be 150 nM.
With `CCCC[C@@H](NC(=O)[C@H](CCCNC(=N)N)NC(=O)[C@@H]1CCCN1C(=O)[C@H](CCCNC(=N)N)NC(=O)[C@H](Cc1ccccc1)NC(=O)[C@H](CC(C)C)NC(=O)[C@H](Cc1c[nH]c2ccccc12)NC(=O)[C@H](Cc1ccccc1)NC(=O)CNC(=O)[C@H](CCCNC(=N)N)NC(=O)[C@H](CO)NC(=O)[C@H](CCC(N)=O)NC(=O)[C@H](CO)NC(=O)[C@H](C)NC(=O)[C@H](Cc1ccccc1)NC(=O)[C@@H]1CCCN1C(=O)[C@H](CO)NC(=O)[C@H](CCC(N)=O)NC(=O)[C@H](Cc1ccccc1)NC(=O)[C@H](CCC(=O)O)NC(=O)[C@H](CCC(=O)O)NC(=O)[C@H](CC(=O)O)NC(=O)[C@@H](NC(=O)[C@H](CCCNC(=N)N)NC(=O)[C@@H](N)Cc1ccccc1)C(C)C)C(N)=O` [Agonist Q] (H-FRVDEEFQSPFASQSRGFWLFRPR[dNle]-NH2), the “% Activity” value is on record as 89%.
On to `CC(C)C[C@H](NC(=O)[C@H](Cc1ccccc1)NC(=O)[C@@H](N)Cc1ccc(O)cc1)C(=O)N[C@@H](Cc1ccccc1)C(=O)N[C@@H](CCCNC(=N)N)C(=O)N1CCC[C@H]1C(=O)N[C@@H](CCCNC(=N)N)C(=O)N[C@@H](CC(N)=O)C(N)=O` [NMU-8, reference compound], for which the “% Activity” value was 100%.
Regarding FALFRPRN-NH2 [Agonist N], the “% Activity” value came out at 100%.
Take H-FWLFRARN-NH2 [Agonist L]: the “% Activity” value came to 100%.
As to WALFRARN-NH2 [Agonist M], the “% Activity” value was found to be 71% and the IC50 came to 180 nM.
